Measured values published in the supplement of paper PMC13380429.

How the values were obtained:
Conditions in all cases: 72 h
HepG2 [1] = assay: cell viability relative to DMSO; higher = less toxic
U2OS [2] = assay: as above
Calu-3 [3] = assay: as above
Vero E6 [4] = assay: as above
Caco-2 [5] = assay: as above
HepG2 [6] = assay: drug sensitivity score (DSS) for viability; higher = more toxic; extreme values may be limits of the assay
U2OS [7] = assay: as above
Calu-3 [8] = assay: as above
Vero E6 [9] = assay: as above
Caco-2 [10] = assay: as above
HepG2 [11] = assay: relative viability EC50 (midpoint between 100% and the lowest measured viability); higher = less toxic
U2OS [12] = assay: as above
Calu-3 [13] = assay: as above
Vero E6 [14] = assay: as above
Caco-2 [15] = assay: as above

Structure (SMILES) | cell viability (HepG2 [1]; 1 nM) | cell viability (HepG2 [1]; 10 nM) | cell viability (HepG2 [1]; 100 nM) | cell viability (HepG2 [1]; 1000 nM) | cell viability (HepG2 [1]; 10000 nM) | cell viability (U2OS [2]; 1 nM) | cell viability (U2OS [2]; 10 nM) | cell viability (U2OS [2]; 100 nM) | cell viability (U2OS [2]; 1000 nM) | cell viability (U2OS [2]; 10000 nM) | cell viability (Calu-3 [3]; 1 nM) | cell viability (Calu-3 [3]; 10 nM) | cell viability (Calu-3 [3]; 100 nM) | cell viability (Calu-3 [3]; 1000 nM) | cell viability (Calu-3 [3]; 10000 nM) | cell viability (Vero E6 [4]; 1 nM) | cell viability (Vero E6 [4]; 10 nM) | cell viability (Vero E6 [4]; 100 nM) | cell viability (Vero E6 [4]; 1000 nM) | cell viability (Vero E6 [4]; 10000 nM) | cell viability (Caco-2 [5]; 1 nM) | cell viability (Caco-2 [5]; 10 nM) | cell viability (Caco-2 [5]; 100 nM) | cell viability (Caco-2 [5]; 1000 nM) | cell viability (Caco-2 [5]; 10000 nM) | drug sensitivity score (HepG2 [6]) | drug sensitivity score (U2OS [7]) | drug sensitivity score (Calu-3 [8]) | drug sensitivity score (Vero E6 [9]) | drug sensitivity score (Caco-2 [10]) | relative viability EC50 (HepG2 [11]) | relative viability EC50 (U2OS [12]) | relative viability EC50 (Calu-3 [13]) | relative viability EC50 (Vero E6 [14]) | relative viability EC50 (Caco-2 [15])
COc1ccc2c(c1)c(C1=C(c3c[nH]c4ccccc34)C(=O)NC1=O)cn2CCCN(C)C [go-6983] | 105% | 94.7% | 87.1% | 105% | 31.7% | 94.4% | 92.2% | 104% | 91.4% | 79.6% | 98.9% | 85.1% | 99% | 83.9% | 84% | 108% | 104% | 97.7% | 103% | 75.3% | 110% | 95.6% | 108% | 101% | 85.7% | 3.4 | 1.6 | 1.2 | 0.7 | 0.2 | 3.52 µM | > 10 µM | > 10 µM | > 10 µM | > 10 µM
CCc1nc2c(C)nc(C)cc2n1-c1ccc(CCNC(=O)NS(=O)(=O)c2ccc(C)cc2)cc1 [grapiprant] | 103% | 101% | 104% | 99.2% | 97.6% | 98% | 96.3% | 97.7% | 99.3% | 96.8% | 102% | 89.9% | 103% | 96.1% | 104% | 101% | 97.7% | 97.3% | 95.6% | 96.6% | 101% | 90.4% | 101% | 102% | 93.8% | 0 | 0 | 0 | 0 | 0 | > 10 µM | > 10 µM | > 10 µM | > 10 µM | > 10 µM
CN(C)CCc1ccc(O)cc1 [hordenine] | 104% | 110% | 103% | 87.1% | 100% | 94.6% | 96.1% | 92.7% | 102% | 97.8% | 91.9% | 93.6% | 89.7% | 101% | 101% | 106% | 103% | 101% | 99.1% | 103% | 96.2% | 102% | 100% | 102% | 95.8% | 0 | 0 | 0 | 0 | 0 | > 10 µM | > 10 µM | > 10 µM | > 10 µM | > 10 µM
Cc1cc(/C=C2\SC(=O)N(c3ccccc3)C2=O)c(C)n1-c1cccnc1 [iCRT-14] | 96.7% | 102% | 93.4% | 94.3% | 76.2% | 97% | 96.8% | 102% | 95.7% | 96.4% | 101% | 88.7% | 100% | 104% | 107% | 105% | 102% | 96.8% | 99.8% | 89.8% | 107% | 107% | 102% | 96.8% | 89% | 1.4 | 0 | 0 | 0 | 0.1 | > 10 µM | > 10 µM | > 10 µM | > 10 µM | > 10 µM
N=C(N)NCCC[C@@H](N)C(=O)N[C@@H](CCCNC(=N)N)C(=O)N1CCC[C@H]1C(=O)N1C[C@H](O)C[C@H]1C(=O)NCC(=O)N[C@@H](Cc1cccs1)C(=O)N[C@@H](CO)C(=O)N1Cc2ccccc2C[C@@H]1C(=O)N1[C@H](C(=O)N[C@@H](CCCNC(=N)N)C(=O)O)C[C@@H]2CCCC[C@@H]21 [icatibant-acetate] | 91% | 93.3% | 84.7% | 102% | 102% | 102% | 98.8% | 103% | 98.1% | 101% | 107% | 92.8% | 98% | 98.6% | 104% | 99% | 97.9% | 101% | 101% | 101% | 96% | 100% | 90% | 91.4% | 103% | 0 | 0 | 0 | 0 | 0 | > 10 µM | > 10 µM | > 10 µM | > 10 µM | > 10 µM
C[C@@]12CC[C@@H]3[C@@](CC[C@H]4[C@@]3(C)CCC[C@@]4(C)C(=O)O)(CC1=O)C2 [isosteviol] | 94.4% | 91.4% | 100% | 99.5% | 107% | 101% | 101% | 96.8% | 96.5% | 98.1% | 103% | 105% | 112% | 110% | 94.5% | 97.8% | 99.6% | 98.5% | 97.5% | 106% | 87.5% | 99.9% | 89.2% | 95.2% | 109% | 0 | 0 | 0 | 0 | 0 | > 10 µM | > 10 µM | > 10 µM | > 10 µM | > 10 µM
N#CCCCSC(=N)N [kevetrin] | 107% | 97.4% | 101% | 93.6% | 101% | 97.9% | 102% | 96.3% | 97.5% | 96.3% | 108% | 90.9% | 92.8% | 105% | 93.1% | 96.6% | 98.4% | 92.6% | 101% | 98.9% | 92% | 99.3% | 96.6% | 99.8% | 99.7% | 0 | 0 | 0 | 0 | 0 | > 10 µM | > 10 µM | > 10 µM | > 10 µM | > 10 µM
CC(=O)O[C@H]1C[C@H](O[C@H]2[C@@H](O)C[C@H](O[C@H]3[C@@H](O)C[C@H](O[C@H]4CC[C@@]5(C)[C@H](CC[C@@H]6[C@@H]5C[C@@H](O)[C@]5(C)[C@@H](C7=CC(=O)OC7)CC[C@]65O)C4)O[C@@H]3C)O[C@@H]2C)O[C@H](C)[C@H]1O[C@@H]1O[C@H](CO)[C@@H](O)[C@H](O)[C@H]1O [lanatoside-C] | 99.4% | 97.7% | 83.3% | 30.9% | 5.9% | 101% | 97.3% | 87.4% | 3.4% | 6.7% | 107% | 95.1% | 80.7% | 30.6% | 18.7% | 92.5% | 92% | 23.4% | 0.8% | 0.9% | 102% | 99% | 66.4% | 17.6% | 18.4% | 15 | 19.5 | 15.2 | 27.8 | 19.5 | 0.396 µM | 0.211 µM | 0.248 µM | 0.0458 µM | 0.116 µM
CC1(C)OC[C@@H](COC(=O)CCc2ccc(OC[C@@H](O)CNCCNC(=O)N3CCOCC3)cc2)O1 [landiolol] | 81.9% | 106% | 104% | 86.3% | 96.8% | 98.4% | 99.2% | 96.9% | 101% | 97.1% | 105% | 97.7% | 97.2% | 104% | 101% | 96.2% | 97.4% | 93.4% | 94.6% | 96.6% | 111% | 103% | 98.2% | 108% | 107% | 0 | 0 | 0 | 0 | 0 | > 10 µM | > 10 µM | > 10 µM | > 10 µM | > 10 µM
CC1(C)Cc2c(-c3ccccc3)c(-c3ccc(Cl)cc3)c(CC(=O)O)n2C1 [licofelone] | 110% | 102% | 95.4% | 101% | 93.1% | 101% | 101% | 97.5% | 102% | 90.9% | 104% | 101% | 100% | 96% | 95% | 102% | 102% | 102% | 107% | 99.5% | 94.8% | 94.9% | 87.5% | 96.9% | 85.3% | 0 | 0 | 0 | 0 | 0.1 | > 10 µM | > 10 µM | > 10 µM | > 10 µM | > 10 µM
Clc1cccc(N2CCNCC2)c1 [mCPP] | 97.7% | 95.3% | 96% | 100% | 105% | 99.8% | 93.3% | 103% | 97.1% | 93.9% | 91.4% | 102% | 104% | 104% | 100% | 88.9% | 103% | 96.7% | 100% | 106% | 88.9% | 97% | 96.1% | 92.4% | 98.4% | 0 | 0 | 0 | 0 | 0 | > 10 µM | > 10 µM | > 10 µM | > 10 µM | > 10 µM
CN1CCCCC1CCN1c2ccccc2Sc2ccc([S+](C)[O-])cc21 (stereo not given) [mesoridazine] | 108% | 93.2% | 120% | 106% | 111% | 95.3% | 101% | 96.7% | 97.5% | 101% | 101% | 108% | 97.7% | 105% | 120% | 93.2% | 96.7% | 91% | 90.1% | 96.5% | 93.4% | 93.9% | 90.5% | 97% | 110% | 0 | 0 | 0 | 0 | 0 | > 10 µM | > 10 µM | > 10 µM | > 10 µM | > 10 µM
CC(C)NCC(O)c1cc(O)cc(O)c1 (stereo not given) [metaproterenol] | 98.6% | 110% | 108% | 108% | 108% | 98.3% | 96.8% | 98.9% | 98.7% | 102% | 101% | 97.2% | 106% | 108% | 98% | 94.4% | 95.6% | 92.7% | 94.7% | 113% | 93.4% | 90.8% | 104% | 106% | 95.1% | 0 | 0 | 0 | 0 | 0 | > 10 µM | > 10 µM | > 10 µM | > 10 µM | > 10 µM
